{"source": "patent US8206970B2", "about": "“Production of 2-butanol and 2-butanone employing aminobutanol phosphate phospholyase” (Butamax(TM) Advanced Biofuels LLC, priority 2006, dated 2012)", "key": {"[1]": {"tested_on": "Erwinia amino alcohol O-phosphate lyase", "experiment": "activity of amino alcohol O-phosphate lyase towards aminobutanol O-phosphate and stereoisomers (MBTH derivatization, HPLC)", "assay_type": "biochemical, Erwinia carotovora subsp. atroseptica", "conditions": "for conversion of substrate to ketone product: 100 μg cell free extract, 10 mM substrate, 0.1 mM PLP, pH 7.8, 37° C. overnight; for product yield / activity compared among substrates: same conditions, comparison between substrate isomers", "description": "2-Butanone can also be detected by derivatization with 3-methyl-2-benzothiazolinone hydrazone (MBTH). An aqueous solution containing 2-butanone is mixed with an equal volume of an aqueous solution of 6 mg/mL MBTH in 375 mM glycine-HCl (pH 2.7) and incubated at 100° C. for 3 min. The resulting MBTH-derivatized samples are analyzed on a 25 cm×4.6 mm (id) Supelosil LC-18-D5 5 μm column (Supelco) using a mobile phase of 55% acetonitrile in water at a flow rate of 1 mL/min. The 2-butanone derivative appears as two peaks (cis and trans isomers) with retention times of approximately 12.3 and 13.3 min and absorbance maxima of 230 and 307 nm.\nThe activity of the amino alcohol O-phosphate lyase towards the aminobutanol O-phosphate substrates was studied under the same conditions as described above. The reaction was carried out at 37° C. overnight in a 1 mL reaction that contained 100 μg of cell free extract of E. coli TOP10/pBAD.KA-AT, 10 mM aminobutanol O-phosphate (either the mixture of (R,R)+(S,S) or the mixture of (R,S) +(S,R) isomers described in Example 15) in 100 mM Tris-HCI, pH 7.8, with 0.1 mM PLP. An aliquot of 100 μL reaction mixture was removed and the 2-butanone product was detected using the MBTH derivatization method described in the General Methods. […] Therefore the Erwinia amino alcohol O-phosphate lyase is an aminobutanol phosphate phospho-lyase in addition to an aminopropanol phosphate phospho-lyase.\nThe activity of the Erwinia amino alcohol O-phosphate lyase towards various stereoisomers of aminopropanol O-phosphate and aminobutanol O-phosphate was studied under the same conditions as described above. […] Both propanone and butanone products were derivatized by MBTH, and detected by HPLC as described in General Methods."}, "[2]": {"tested_on": "B12-independent diol dehydratase from Clostridium glycolicum", "conditions": "cited from earlier work"}, "[3]": {"tested_on": "Erwinia amino alcohol O-phosphate lyase", "experiment": "aminopropanol O-phosphate lyase assay (colorimetric, MBTH)", "assay_type": "biochemical, Erwinia carotovora subsp. atroseptica", "conditions": "induced cell free extract 100 μg/mL, 10 mM substrate, 37° C.", "description": "The PBAD.KA-AT plasmid was transformed into the E. coli TOP10 strain. A 50 mL culture of TOP10/pBAD.KA-AT strain was grown to mid log phase (OD600=0.6) in LB, 100 μg/mL ampicillin media at 37° C. with shaking at 250 rpm. The culture was induced by addition of L-arabinose to a final concentration of 0.1% (w/v), and it was further incubated at 37° C. for 5 h before harvesting by centrifugation. The cell pellet was resuspended in ice cold 50 mM Tris-HCl, pH 8.0, and disrupted by sonication on ice with a Fischer Sonic Model 300 Dismembrator (Fischer, Pittsburgh, Pa.) at 50% power, repeating four cycles of 30 seconds sonication with 60 seconds rest in-between each cycle. Each sonicated sample was centrifuged (15,000×g, 4 min, 4° C.). Clarified cell free extracts were analyzed for protein expression level and amino alcohol O-phosphate lyase activity.\nThe aminopropanol O-phosphate lyase assay was performed as described by Jones et al. (1973, Biochem. J. 134:167-182) and G. Gori et al. (1995, Chromatographia 40:336) The formation of propionaldehyde from aminopropanol O-phosphate was assayed calorimetrically with MBTH, which allows the detection of aldehyde formation. The reaction was performed as follows. In a 1 mL reaction, 100 μg cell free extract of E. coli TOP10/pBAD.KA-AT was added to 10 mM DL-1-amino-2-propanol O-phosphate in 100 mM Tris-HCl, pH 7.8, with 0.1 mM PLP. The reaction was incubated at 37° C. for 10 min and 30 min, with an aliquot of 100 μL reaction mixture removed at each time point and mixed with 100 μL of 6 mg/mL MBTH in 375 mM glycine-HCl, pH 2.7. This mixture was incubated at 100° C. for 3 min, cooled on ice for 15-30 s, and 1 mL of 3.3 mg/mL FeCl3.6H2O (in 10 mM HCl) was added, followed by incubation for 30 min at room temperature. The absorbance of the reaction mixture which contains the aldehyde-MBTH adduct, was measured at 670 nm. In the presence of the aminopropanol phosphate substrate, PLP and cell free extract, formation of aldehyde was detected, as indicated by an Abs670 that was higher than the control background of up to 0.3. In the absence of either the substrate or the cell free extract, no aldehyde formation was detected. In the absence of added PLP, somewhat less amount aldehyde was detected, presumably due to the presence of PLP in the cell free extract."}, "[4]": {"tested_on": "Vibrio Fluvialis APT (alanine:acetoin aminotransferase)", "experiment": "kinetic resolution of 3-amino-2-butanol isomers with the alanine:acetoin aminotransferase", "assay_type": "biochemical, Vibrio Fluvialis JS17", "conditions": "10 mM pyruvate, 10 mM 1:1 isomer mixture, 0.28 mg enzyme, pH 9.0, 24 h room temperature", "description": "An analytical method for detection of 3-amino-2-butanol was developed based on the o-phthaldialdehyde derivatization method for amino acid determination reported by Roth [Anal. Chem. 43:880 (1971)]. A 200 μL aliquot of 1 mM 3-amino-2-butanol (mixture of isomers) was mixed with 200 μL of a 50 mM solution of borate (pH 9.5), to which was added 10 μL of 5 μL/mL 2-mercaptoethanol in ethanol and 10 μL of 10 mg/mL o-phthaldialdehdye in ethanol. The solution was incubated at room temperature for 10 min, at which time the derivative was extracted into 200 μL hexane. The hexane was separated from the aqueous solution by decanting, and 10 μL were injected onto a Chiracel OD HPLC column (Daicel Chemical Industries; Fort Lee, N.J.). The column was run isocratically with a mobile phase of 90:10 hexane:isopropanol at a rate of 1 mL/min. The derivatized isomers of 3-amino-2-butanol were detected by absorbance at 340 nm with retention times of approximately 15.7 and 16.8 min [(2S,3S) and (2R,3R)], and 18.4 and 21.9 min [(2R,3S) and (2S,3R)]. […] After 24 h at room temperature, an aliquot was removed and analyzed as described above. […] After 3 h, samples were taken from the reaction and analyzed as described above for acetoin and butanediol. […]"}, "[5]": {"tested_on": "Klebsiella pneumoniae glycerol dehydratase", "experiment": "glycerol dehydratase butanediol dehydratase activity", "assay_type": "biochemical", "conditions": "crude cell free extract of KLP23/pSYCO12, 80 mM HEPES pH 8.2, 37° C., 12 μM coenzyme B12, 10 mM substrate", "text": "Glycerol dehydratase (E.C. 4.2.1.30) and diol dehydratase (E.C. 4.2.1.28), while structurally related, are often distinguished in the art based on various differences that include substrate specificity. […] The recombinant E. coli strain KLP23/pSYCO1 2, comprising Klebsiella pneumoniae genes encoding the multiple subunits of glycerol dehydratase (alpha: SEQ ID NO:145 (coding region) and 146 (protein); beta: SEQ ID NO: 147 (coding region) and 148 (protein); and gamma: SEQ ID NO: 149 (coding region) and 150 (protein)) and Klebsiella pneumoniae genes encoding the multiple subunits of glycerol dehydratase reactivase (large subunit, SEQ ID NO: 151 (coding region) and 152 (protein); and small subunit, SEQ ID NO: 153 (coding region) and 154 (protein)), is described in Emptage et al. U.S. Pat. No. 6,514,733 and in WO 2003089621, which are herein incorporated by reference. A crude, cell free extract of KLP23/pSYCO12 was prepared by methods known to one skilled in the art. […] The formation of 2-butanone was monitored by HPLC (Shodex SH-1011 column and SH-G guard column with refractive index detection; 0.01 M H2SO4 as the mobile phase at a flow rate of 0.5 mL/min and a column temperature of 50° C.; 2-butanone retention time=40.2 min). The rate of 2-butanone formation by the glycerol dehydratase preparation was determined to be 0.4 nmol/min/mg of crude protein."}}, "data": [{"compound": "C[C@@H](N)COP(=O)(O)O", "note": "[(R)-2-amino-1-propanol O-phosphate]", "values": [{"measurement": "conversion of substrate to ketone product", "setting": "[1]", "value": "converted to propanone"}]}, {"compound": "CC(O)C(C)O", "note": "(stereo not drawn) [2,3-butanediol]", "values": [{"measurement": "activity relative to the activity towards ethanediol", "setting": "[2]", "value": "less than 1%"}]}, {"compound": "C[C@@H](N)[C@@H](C)OP(=O)(O)O", "note": "(mixture of isomers) [mixture of (R,R)+(S,S), (R,R)-3-amino-2-butanol O-phosphate]", "values": [{"measurement": "conversion of substrate to ketone product", "setting": "[1]", "value": "two peaks representing the derivatized 2-butanone isomers were observed"}]}, {"compound": "(2R,3S)-3-amino-2-butanol O-phosphate and (2S,3R)-3-amino-2-butanol O-phosphate [mixture of (R,S) +(S,R) isomers]", "values": [{"measurement": "conversion of substrate to ketone product", "setting": "[1]", "value": "two peaks representing the derivatized 2-butanone isomers were observed"}, {"measurement": "product yield / activity compared among substrates", "setting": "[1]", "value": "higher product yield"}]}, {"compound": "CC(CN)OP(=O)(O)O", "note": "(racemic) [Aminopropanol O-phosphate, DL-1-amino-2-propanol O-phosphate]", "values": [{"measurement": "OD670, 10 min", "setting": "[3]; PLP (+)", "value": 1.229}, {"measurement": "OD670, 30 min", "setting": "[3]; PLP (+)", "value": 2.264}, {"measurement": "OD670, 10 min", "setting": "[3]; PLP (−)", "value": 0.855}, {"measurement": "OD670, 30 min", "setting": "[3]; PLP (−)", "value": 1.454}, {"measurement": "product yield / activity compared among substrates", "setting": "[1]", "value": "highest activity"}]}, {"compound": "C[C@H](O)[C@@H](C)N", "note": "[(2S,3R) isomer, (2S,3R)-3-amino-2-butanol]", "values": [{"measurement": "peak retained", "setting": "[4]", "value": "> 90", "unit": "%"}]}, {"compound": "CC(O)C(C)O", "note": "(stereo not drawn) [meso-2,3-butanediol]", "values": [{"measurement": "rate of 2-butanone formation", "setting": "[5]", "value": "0.4 nmol/min/mg of crude protein"}]}, {"compound": "C[C@H](N)[C@@H](C)O", "note": "[(2R,3S) isomer, (2R,3S)-3-amino-2-butanol]", "values": [{"measurement": "peak depleted", "setting": "[4]", "value": 95, "unit": "%"}]}, {"compound": "C[C@H](N)COP(=O)(O)O", "note": "[(S)-2-amino-1-propanol O-phosphate]", "values": [{"measurement": "conversion of substrate to ketone product", "setting": "[1]", "value": "converted to propanone"}, {"measurement": "product yield / activity compared among substrates", "setting": "[1]", "value": "much higher"}]}]}
